Laboratory results: US20260218132A1, “METHODS AND MATERIALS FOR GENERATING STEM CELL-DERIVED ENDOCRINE CELL TYPES” (Mayo Foundation for Medical Education and Research, priority 2023, published 2026)
Blank lines part the entries; values can stand above or below the compound they belong to.

Experiments:
delta progenitor cells [1] = assay: High-content small molecule screen on delta progenitor cells (step 5); assay type: cell-based, human; conditions: library screened at 20 μM, 2 μM and 0.2 μM
Experimental: (§1) Compounds that increased the percentage of Pre-Delta (PD) cells (positive for somatostatin (SST) while negative for both insulin (INS) and glucagon (GCG)) and reduced the percentage of polyhormonal cells were considered as hits. […] The library was screened at 20 μM, 2 μM, and 0.2 μM final concentrations (FIG. 22).

PP cells = PP cells treated with FGF receptor inhibitors along with RA, somatostatin expressing cells; assay type: cell-based, human; conditions: control having only RA, six-well plates, 5 days
Experimental: (§2) The cell clusters collected during the course of differentiation at different stages were dissociated into single cell suspension by treating with TrypLE Express at 37° C. for 10 minutes after washing twice with phosphate buffered saline (PBS). The enzyme activity was quenched by adding equal volume of S3 media to prevent further degradation, and dispersed single cells were washed with PBS, fixed in 4% paraformaldehyde (PFA) for 20 minutes and subsequently stored at 4° C. until further use. On the day of staining, the cells were passed through 40 μm filter and washed twice with PBS before permeabilizing in block solution (PBS+0.1% Triton X-100+5% donkey serum; PBST). […] The stained cells were acquired in Attune flow cytometer and were analyzed using FlowJo v10 software. […]
To further explore the specificity of inhibition of FGF receptors, PP cells were treated with five additional FGF receptor inhibitors (AZD4547, erdafitinib, roblitinib, pemigatinib, or BGJ398) along with RA (FIG. 7). […] To find an effective concentration of these compounds, differentiated PP cells were transferred to six-well plates and treated with either control having only RA or each FGF receptor inhibitors along with RA for 5 days and quantified the percentage of somatostatin expressing cells.

PDX1^+/NKX6.1^− PP cells = assay: Differentiation of PP cells to delta progenitor cells (stage 4), hormone expression by flow cytometry; assay type: cell-based, human; conditions: stage 3 cells treated independently or in combination for 5 days
Experimental: After 72 hours of culture in mTeSR, the clusters of HUES8 cells were allowed to settle at the bottom of the spinner flask, and spent media was replaced with stage specific differentiation media containing specific growth factors and small molecules.
(§3) The differentiation was carried out in six stages. The generation of PP1 cells from HUES8 cells was carried out using prior protocols with modifications (see, e.g., Pagliuca et al., Cell, 159:428-439 (2014); and Peterson et al., Nat. Commun., 11:Article No. 2241 (14 pages) (2020)); and the delta cell differentiation was further carried out using PP1 cells. The media changes for differentiation were as follows:
as §2, with “use.” for “use. On the day of staining, the cells were passed through 40 μm filter and washed twice with PBS before permeabilizing in block solution (PBS+0.1% Triton X-100+5% donkey serum; PBST).”

delta progenitor cells [2] = assay: Differentiation of delta progenitor cells to pre-delta cells (stage 5), flow cytometry; assay type: cell-based, human
Experimental: as §3
(§4) The cell clusters collected during the course of differentiation at different stages were dissociated into single cell suspension by treating with TrypLE Express at 37° C. for 10 minutes after washing twice with phosphate buffered saline (PBS). The enzyme activity was quenched by adding equal volume of S3 media to prevent further degradation, and dispersed single cells were washed with PBS, fixed in 4% paraformaldehyde (PFA) for 20 minutes and subsequently stored at 4° C. until further use. On the day of staining, the cells were passed through 40 μm filter and washed twice with PBS before permeabilizing in block solution (PBS+0.1% Triton X-100+5% donkey serum; PBST). After 40 minutes of blocking, the cells were incubated with primary antibodies in block solution for 1 hour at room temperature (RT), washed twice with PBST, and then incubated with appropriate secondary antibodies in block solution for 1 hour at RT. Finally, cells were washed twice with PBST and resuspended in PBS at a concentration of 1×10^6 cells/mL. The stained cells were acquired in Attune flow cytometer and were analyzed using FlowJo v10 software. The Pdx1 (R&D Systems, AF2419) antibody was used at 1:250, Nkx6.1 (Iowa Hybridoma Bank, F55A12) at 1:100, insulin (Iowa Hybridoma Bank, GN-ID4) at 1:250, glucagon (LSBio, LS-B10219) at 1:25,000, and somatostatin (Santa Cruz Biotechnologies, SC-25262) at a dilution of 1:8000. The secondary antibodies are either donkey-anti-goat-Alexa Fluor 488 (Invitrogen, A-11055, 1:1000), donkey-anti-rabbit-Alexa Fluor 488 (Invitrogen, A-21206, 1:1000), donkey-anti-rat-Alexa Fluor 594 (Invitrogen, A-21209, 1:1000), or donkey-anti-mouse-Alexa Fluor 647 (Invitrogen, A-31571 1:1000).
as §1

pre-delta cells [3] = assay: Differentiation of pre-delta cells to SCδ cells (stage 6), flow cytometry and immunohistochemistry; assay type: cell-based, human
Experimental: as §3, §4
The differentiated cell clusters or human islets were fixed in 4% PFA and stored at 4° C. until further use. The clusters were washed three times with PBS, set in Histogel (Thermo), embedded in paraffin, and sectioned at 4 μm for histological analysis. Antigen retrieval was performed in citrate buffer (pH 6.5) for 1 hour in boiling water bath on deparaffinized and rehydrated sections, and then allowed to cool for 40 minutes. Sections were then permeabilized and blocked in block solution (PBS+0.1% Triton X-100+5% donkey serum; PBST) for 40 minutes. Primary antibodies were added at appropriate dilutions and incubated overnight at 4° C. On the following day, secondary antibodies were added for 1 hour at room temperature. After thorough rinse with PBST, sections were mounted in Vectashield (Vector Laboratories), covered with coverslips, and sealed with nail polish. The sections were visualized using Zeiss microscope. The secondary antibodies are either donkey-anti-goat-Alexa Fluor 488 (Invitrogen, A-11055, 1:1000), donkey-anti-rabbit-Alexa Fluor 488 (Invitrogen, A-21206, 1:1000), donkey-anti-rat-Alexa Fluor 594 (Invitrogen, A-21209, 1:1000), or donkey-anti-mouse-Alexa Fluor 647 (Invitrogen, A-31571 1:1000).

pre-delta cells [4] = assay: High-content small molecule screen and dose response on pre-delta cells (step 6); conditions: for cell loss at higher concentration: dose response, step 6
Experimental: Clusters were collected from either Stage 3, or Stage 4, or Stage 5 completed flasks, washed three times with PBS, dispersed into single cells using TrypLE Express for 10 minutes, and quenched using S3 media. […] Chemical compounds were then introduced to each well and incubated at 37° C. in a humidified atmosphere. The fresh media and compounds were added every other day by replacing the spent media. After 5 days for Stage 3 completed cells, 4 days for Stage 4 completed cells, and 7 days for Stage 5 completed cells of incubation, the cells were fixed with 4% PFA and stained for insulin, glucagon, and somatostatin as described herein. Stained cells were imaged with the Cellomics Scan Version 6.6.0 (Thermo Scientific HCS Studio). Twenty-five view fields were captured for each well and analyzed. The percentage of cells expressing only somatostatin was calculated for each well.
Thus, to further increase the percentage of monohormonal SC-δ cells, a small molecule screen on pre-delta cells was conducted, as described earlier with a similar set of criteria (FIG. 2D).

SMILES: C[C@H](NC(=O)Cc1cc(F)cc(F)c1)C(=O)N[C@@H]1C(=O)N(C)c2ccccc2-c2ccccc21 [γ-secretase inhibitor XX, N-[(1S)-2-[[(7S)-6,7-dihydro-5-methyl-6-oxo-5H-dibenz[b,d]azepin-7-yl]amino]-1-methyl-2-oxoethyl]-3,5-difluoro-benzeneacetamide]
screen outcome, step 5 (increase of pre-delta cells, fewer polyhormonal cells) (delta progenitor cells [1]): primary hits

SMILES: CC1=C(/C=C/C(C)=C/C=C/C(C)=C/C(=O)O)C(C)(C)CCC1 [RA, retinoic acid]
somatostatin expressing cells (PP cells): 2.53±0.15%

SMILES: c1ccc2c(-c3cnn4cc(-c5ccc(N6CCNCC6)cc5)cnc34)ccnc2c1 [LDN193189, 4-[6-(4-piperazin-1-ylphenyl)pyrazolo[1,5-a]pyrimidin-3-yl]quinolin]
screen outcome, step 5 (increase of pre-delta cells, fewer polyhormonal cells) (delta progenitor cells [1]): primary hits

SMILES: CCN(CC)CCCCNc1ncc2cc(-c3cc(OC)cc(OC)c3)c(NC(=O)NC(C)(C)C)nc2n1 [PD173074, 1-tert-butyl-3-[2-[4-(diethylamino)butylamino]-6-(3,5-dimethoxyphenyl)pyrido[2,3-d]pyrimidin-7-yl]urea]
somatostatin expression in PP cells (PDX1^+/NKX6.1^− PP cells): induced a small population of somatostatin expression

SMILES: Cc1cccc(-c2[nH]ncc2-c2ccc3ncccc3n2)n1 [Alk5 inhibitor II, 2-[5-(6-methylpyridin-2-yl)-1H-pyrazol-4-yl]-1,5-naphthyridine]
monohormonal SC-delta cells on omission of the compound from stage 5 (delta progenitor cells [2]; Indolactam V and γ-secretase inhibitor XX without Alk5inh II, FIG. 24C): significant reduction in monohormonal SC-delta cells
resulting cells express somatostatin (delta progenitor cells [2]; delta progenitor cells treated with Alk5i II, FIG. 1D): approximately 8%
SC-α cells population (delta progenitor cells [2]; stage 5, flow cytometry): 14.78±1.72%
SC-β cells population (delta progenitor cells [2]; stage 5, flow cytometry): 5.20±0.72%
SST^+GCG^+INS^+ cells (delta progenitor cells [2]; stage 5, flow cytometry): 15.46±15.07%
SST^−GCG^−INS^− cells (delta progenitor cells [2]; stage 5, flow cytometry): 20.97±7.59%
polyhormonal cells (delta progenitor cells [2]; stage 5, flow cytometry): 54.88±6.74%
pre-delta cells (somatostatin positive, insulin and glucagon negative) (delta progenitor cells [2]; stage 5, flow cytometry): 4.11±1.12%

cell loss at higher concentration (pre-delta cells [4]): severe cell loss
SMILES: C=C[C@@]1(C)CC(=O)[C@]2(O)[C@@]3(C)[C@@H](O)CCC(C)(C)[C@@H]3[C@H](O)[C@H](OC(C)=O)[C@@]2(C)O1 [forskolin, [(3R,4aR,5S,6S,6aS,10S,10aR,10bS)-3-ethenyl-6,10,10b-trihydroxy-3,4a,7,7,10a-pentamethyl-1-oxo-5,6,6a,8,9,10-hexahydro-2H-benzo[f]chromen-5-yl]acetate]
SCδ cells (pre-delta cells [3]; 200 μM for 7 days, stage 6, flow cytometry): 17.51±0.88%
percentage of SC-δ cells after long-term culture (pre-delta cells [3]; forskolin withdrawn from S3 media, cultured for additional two weeks): 31.15±1.30%
SC-α cells (pre-delta cells [3]; stage 6, flow cytometry): 0.79±0.14%
SST^+GCG^+INS^+ cells (pre-delta cells [3]; stage 6, flow cytometry): 11.02±0.60%
SST^−GCG^+INS^+ cells (pre-delta cells [3]; stage 6, flow cytometry): 2.36±0.36%

SMILES: CC(C)[C@H]1C(=O)N[C@H](CO)Cc2c[nH]c3cccc(c23)N1C [indolactam V, (10S,13S)-13-(hydroxymethyl)-9-methyl-10-propan-2-yl-3,9,12-triazatricyclo[6.6.1.0^4,15]pentadeca-1,4(15),5,7-tetraen-11-one]
dose response, monohormonal SCδ cells (pre-delta cells [4]; FIG. 2F, FIG. 24B): dose dependent increase in monohormonal SCδ cells
cell loss at higher concentration (pre-delta cells [4]): severe cell loss
screen outcome, step 6 (increase of monohormonal SC-δ cells) (pre-delta cells [4]; library screened at 20 μM, 2 μM and 0.2 μM): primary hits
screen outcome, step 5 (increase of pre-delta cells, fewer polyhormonal cells) (delta progenitor cells [1]): primary hits
